# Like-named read-outs stand apart in the source and are kept apart here. Marks after values point to notes of the source that are not given here.
# Assays:
# [1] = In vitro partitioning experiments in two-phase dissolution apparatus; format: physicochemical
# [2] = format: physicochemical; conditions: sodium acetate buffer 50 mM, pH 4.5, isotonic; unpublished data
# [3] = cited from earlier work
# [4] = measured value; cited from earlier work
# [5] = cited from earlier work; for Log D: measured value
# [6] = measured value; cited from earlier work; remark: listed apart in the source
structure (smiles),measurement,setting,value
CC(C)Cc1ccc(C(C)C(=O)O)cc1 (stereo not drawn) [Ibuprofen],Best-fit PI for all conditions,"[1]; Apparatus 1, experiments 3–6 (pH 1.5–6.3), 77 rpm, range of 2.2–4.8 × 10^−3",3000 ×10⁻⁶ cm/s
same,PI × 10^4 (best fit),"[1]; Exp. 3, Fig 3(a), Apparatus 1, pH 1.5, 77 rpm, A/Va 0.42 cm^−1, MT/Va 16.7 μg/ml",23.71 cm/s × 10^4
same,PI × 10^4 (best fit),"[1]; Exp. 4, Fig 3(b), Apparatus 1, pH 4.3, 77 rpm, A/Va 0.42 cm^−1, MT/Va 16.7 μg/ml",30.06 cm/s × 10^4
same,PI × 10^4 (best fit),"[1]; Exp. 5, Fig 3(c), Apparatus 1, pH 4.4, 77 rpm, A/Va 0.42 cm^−1, MT/Va 16.7 μg/ml",37.52 cm/s × 10^4
same,PI × 10^4 (best fit),"[1]; Exp. 6, Fig 3(d), Apparatus 1, pH 6.3, 77 rpm, A/Va 0.42 cm^−1, MT/Va 16.7 μg/ml",30.81 cm/s × 10^4
same,PI × 10^4 (best fit),"[1]; Exp. 7, Fig 4(a), Apparatus 2, pH 5.0, 75 rpm, A/Va 0.30 cm^−1, MT/Va 25.0 μg/ml",19.08 cm/s × 10^4
same,PI × 10^4 (best fit),"[1]; Exp. 8, Fig 4(b), Apparatus 2, pH 6.8, 75 rpm, A/Va 0.30 cm^−1, MT/Va 50.0 μg/ml",28.73 cm/s × 10^4
same,PI × 10^4 (best fit),"[1]; Exp. 9, Fig 4(c), Apparatus 2, pH 6.8, 75 rpm, A/Va 0.30 cm^−1, MT/Va 25.0 μg/ml",26.85 cm/s × 10^4
same,"Dissolution rates of particles, buffer versus buffer saturated with 1-octanol",[2],no difference
same,Absorbed in humans,[3]; in vivo,> 99%
Cc1nccn1CC1CCc2c(c3ccccc3n2C)C1=O (stereo not drawn) [Ondansetron],"Fa (fraction absorbed in vivo), actual","[3]; humans, oral solutions",1
CN1C(C(=O)Nc2ccccn2)=C(O)c2ccccc2S1(=O)=O [Piroxicam],pKa at 37 °C (basic),[4],2.3 (basic)^c
same,Log D,[5]; pH 1.2,pH 1.2: 0.92^f
same,Apparent partition coefficient,"[5]; pH 7.5, 37 °C, ref Yazdanian et al. 27",0.8
same,Log D,[5]; pH 7.5,pH 7.5: 0.8^g
same,Intrinsic solubility at 37 °C,[6],6.6 × 10^−5f M
CCCC(CCC)C(=O)O [Valproic acid],"Fa (fraction absorbed in vivo), actual","[3]; humans, oral solutions",1
same,"ka × 10^4 (first-order absorption rate constant), decon.","[3]; humans, oral solutions, printed value = ka × 10^4",11.5 s^−1

# Reference: PMC4503256 (Biopharmaceutics & drug disposition, 2012)
